Experimental data as given in article PMC9696794, “Synthesis and Antimicrobial Activity of Short Analogues of the Marine Antimicrobial Peptide Turgencin A: Effects of SAR Optimizations, Cys-Cys Cyclization and Lipopeptide Modifications” (International Journal of Molecular Sciences, 2022).
Where a SMILES comes first, the peptide text is derived from it. Bridges are numbered along the chain shown (N, C = ends). The star is where a group is joined. Lauroyl = CCCCCCCCCCCC(=O)*; Octanoyl = CCCCCCCC(=O)*

Tested on: fungi (A. pullulans, C. albicans, Rhodotorula sp.)
Assay: Antifungal MIC assay, all fungi together (range or geometric mean)
Format: cell-based
Details: Table S3; MIC >128 set to 128
Method in brief: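 Overnight cultures in potato dextrose broth with 2% glucose at 25–30 °C were diluted to approx. 4 × 10^5 spores/mL and mixed 1:1 with two-fold peptide dilutions plated at 256 to 1 µg/mL. After 48 h at room temperature, OD600 was read. MIC was the lowest concentration giving OD below 10% of the growth control, in triplicate.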

CCCCCCCC(=O)N[C@H]1CSSC[C@@H](C(=O)N[C@@H](CCCCN)C(=O)N[C@@H](CC(C)C)C(N)=O)NC(=O)[C@H](CCCCN)NC(=O)[C@H](Cc2c[nH]c3ccccc23)NC(=O)CNC(=O)[C@H](Cc2c[nH]c3ccccc23)NC(=O)[C@H](Cc2c[nH]c3ccccc23)NC(=O)[C@H](CCCCN)NC(=O)[C@H](CCCCN)NC(=O)CNC1=O [Peptide C8-cTurg-2, C8- (CGKKWWGWKC)KL-NH2] (Octanoyl-CGKKWWGWKCKL-NH2; disulfide 1-10)
GM of MIC Fungi: 13 µg/mL

CCCCCCCCCCCC(=O)N[C@H]1CSSC[C@@H](C(=O)N[C@@H](CCCCN)C(=O)N[C@@H](CC(C)C)C(N)=O)NC(=O)[C@H](CCCCN)NC(=O)[C@H](Cc2c[nH]c3ccccc23)NC(=O)CNC(=O)CNC(=O)[C@@H]2CCCN2C(=O)[C@H](CCCCN)NC(=O)[C@H](CCCCN)NC(=O)CNC1=O [Peptide C12-cTurg-1, C12 -(CGKKPGGWKC)KL-NH2] (Lauroyl-CGKKPGGWKCKL-NH2; disulfide 1-10)
GM of MIC Fungi: 20 µg/mL
